# Source: US20240293392A1, “INHIBITOR COMPOUNDS” (NeoPhore Limited, priority 2021, published 2024)
# Where a name gives a salt, the structure may show the parent alone.
# Tests used:
# [1] = target: T1, recombinant N-terminal MLH1 (residues 15-340) (Homo sapiens, UniProt P40692); experiment: Fluorescence Polarisation Assay for MLH1; type: binding; conditions: fluorescence polarisation probe displacement; 100 nM N-terminal MLH1, 5 nM probe compound
# T1 construct: recombinant N-terminal MLH1 (residues 15-340)
# T1 sequence (P40692 15-340): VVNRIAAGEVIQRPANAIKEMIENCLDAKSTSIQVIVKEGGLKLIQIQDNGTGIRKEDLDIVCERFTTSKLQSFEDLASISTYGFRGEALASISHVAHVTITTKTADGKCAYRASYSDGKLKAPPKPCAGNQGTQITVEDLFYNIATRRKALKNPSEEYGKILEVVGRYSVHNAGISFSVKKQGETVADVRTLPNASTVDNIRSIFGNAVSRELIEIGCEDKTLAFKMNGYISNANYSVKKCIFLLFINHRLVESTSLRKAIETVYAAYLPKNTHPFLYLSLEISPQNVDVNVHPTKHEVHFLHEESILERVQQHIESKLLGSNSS
# Outline: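 FP displacement assay: 100 nM MLH1 (residues 15-340) preincubated 30 min at room temperature with compound in 25 mM HEPES pH 7.5, 250 mM NaCl, 10 mM MgCl2, 0.01% Triton X-100, 5 mM DTT, then 5 nM rhodamine-labelled probe added and read immediately. Data normalised to no-inhibitor and no-enzyme controls.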
# [2] = target: T2, recombinant N-terminal PMS2 (residues 1-365) (Homo sapiens, UniProt P54278); experiment: Fluorescence Polarisation Assay for PMS2; type: binding; conditions: fluorescence polarisation probe displacement; 10 nM N-terminal PMS2, 5 nM probe compound; read-out: PMS2 IC50
# T2 construct: recombinant N-terminal PMS2 (residues 1-365)
# T2 sequence (P54278 1-365): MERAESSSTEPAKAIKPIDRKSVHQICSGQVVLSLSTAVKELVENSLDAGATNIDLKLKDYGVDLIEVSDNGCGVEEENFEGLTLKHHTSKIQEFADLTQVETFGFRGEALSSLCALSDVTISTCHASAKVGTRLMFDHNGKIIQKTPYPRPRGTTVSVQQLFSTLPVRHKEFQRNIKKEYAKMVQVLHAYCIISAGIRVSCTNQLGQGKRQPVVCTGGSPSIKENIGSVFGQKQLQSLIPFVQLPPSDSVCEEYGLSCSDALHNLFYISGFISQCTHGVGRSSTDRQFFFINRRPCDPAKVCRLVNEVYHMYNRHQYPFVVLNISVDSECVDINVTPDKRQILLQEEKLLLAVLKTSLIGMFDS
# Outline: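 Competition fluorescence polarisation with 10 nM N-terminal PMS2 and 5 nM fluorescent probe (final), read after 1 h at room temperature following 30 min compound pre-incubation. Data normalised to no-inhibitor and no-enzyme controls; single-point screening or serial dilutions for potency.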
Structure (SMILES),IC50 [1],IC50 [2]
"CN1C[C@@H](Nc2cccc3c2CN(C(=O)c2c(O)cc(O)cc2OCc2ccccn2)CC3)CC1=O [Example 58, (S)-4-((2-(2,4-Dihydroxy-6-(pyridin-2-ylmethoxy)benzoyl)-1,2,3,4-tetrahydroisoquinolin-8-yl)amino)-1-methylpyrrolidin-2-one]",< 1000 nM,> 10000 nM
"CN1C[C@H](Nc2cccc3c2CN(C(=O)c2c(O)cc(O)cc2OCc2ccccn2)CC3)CC1=O [Example 59, (R)-4-((2-(2,4-dihydroxy-6-(pyridin-2-ylmethoxy)benzoyl)-1,2,3,4-tetrahydroisoquinolin-8-yl)amino)-1-methylpyrrolidin-2-one]",< 1000 nM,1000 to 10000 nM
"COCCOc1cc2c(c(N[C@@H]3CCOC3)c1)CN(C(=O)c1c(O)cc(O)cc1OCc1ccccc1)CC2 [Example 60, (R)-(2-(Benzyloxy)-4,6-dihydroxyphenyl)(6-(2-methoxyethoxy)-8-((tetrahydrofuran-3-yl)amino)-3,4-dihydroisoquinolin-2(1H)-yl)methanone]",< 1000 nM,> 10000 nM
"O=C(c1c(O)cc(O)cc1OCc1ccccc1)N1CCc2nccc(N[C@H]3CCOC3)c2C1 [Example 63, (S)-(2-(Benzyloxy)-4,6-dihydroxyphenyl)(4-((tetrahydrofuran-3-yl)amino)-7,8-dihydro-1,6-naphthyridin-6(5H)-yl)methanone]",< 1000 nM,1000 to 10000 nM
"COCCOc1cc2c(c(N[C@H]3CCOC3)c1)CN(C(=O)c1c(O)cc(O)cc1OCc1ccccc1)CC2 [Example 64, (S)-(2-(Benzyloxy)-4,6-dihydroxyphenyl)(6-(2-methoxyethoxy)-8-((tetrahydrofuran-3-yl)amino)-3,4-dihydroisoquinolin-2(1H)-yl)methanone]",< 1000 nM,1000 to 10000 nM
"CC(=O)N1CC[C@H](Nc2cccc3c2CN(C(=O)c2c(O)cc(O)cc2OCc2ccccc2)CC3)C1 [Example 65, (S)-1-(3-((2-(2-(Benzyloxy)-4,6-dihydroxybenzoyl)-1,2,3,4-tetrahydroisoquinolin-8-yl)amino)pyrrolidin-1-yl)ethan-1-one]",< 1000 nM,> 10000 nM
"CC(=O)N1CC[C@@H](Nc2cccc3c2CN(C(=O)c2c(O)cc(O)cc2OCc2ccccc2)CC3)C1 [Example 66, (R)-1-(3-((2-(2-(Benzyloxy)-4,6-dihydroxybenzoyl)-1,2,3,4-tetrahydroisoquinolin-8-yl)amino)pyrrolidin-1-yl)ethan-1-one]",< 1000 nM,> 10000 nM
"CC(=O)N1CCC[C@H](Nc2cccc3c2CN(C(=O)c2c(O)cc(O)cc2OCc2ccccc2)CC3)C1 [Example 67, (S)-1-(3-((2-(2-(Benzyloxy)-4,6-dihydroxybenzoyl)-1,2,3,4-tetrahydroisoquinolin-8-yl)amino)piperidin-1-yl)ethan-1-one]",1000 to 10000 nM,> 10000 nM
"CC(=O)N1CCC[C@@H](Nc2cccc3c2CN(C(=O)c2c(O)cc(O)cc2OCc2ccccc2)CC3)C1 [Example 68, (R)-1-(3-((2-(2-(benzyloxy)-4,6-dihydroxybenzoyl)-1,2,3,4-tetrahydroisoquinolin-8-yl)amino)piperidin-1-yl)ethan-1-one]",< 1000 nM,> 10000 nM
"CC(=O)N1CCC(Nc2cccc3c2CN(C(=O)c2c(O)cc(O)cc2OCc2ccccc2)CC3)CC1 [Example 69, 1-(4-((2-(2-(Benzyloxy)-4,6-dihydroxybenzoyl)-1,2,3,4-tetrahydroisoquinolin-8-yl)amino)piperidin-1-yl)ethan-1-one]",1000 to 10000 nM,> 10000 nM
"CN1CC(Nc2cccc3c2CN(C(=O)c2c(O)cc(O)cc2OCc2ccccc2)CC3)CCC1=O (stereo not shown) [Example 70, 5-((2-(2-(Benzyloxy)-4,6-dihydroxybenzoyl)-1,2,3,4-tetrahydroisoquinolin-8-yl)amino)-1-methylpiperidin-2-one]",< 1000 nM,> 10000 nM
"O=C(c1c(O)cc(O)cc1OCc1ccccc1)N1CCc2cccc(Nc3cncnc3)c2C1 [Example 71, (2-(Benzyloxy)-4,6-dihydroxyphenyl)(8-(pyrimidin-5-ylamino)-3,4-dihydroisoquinolin-2(1H)-yl)methanone]",< 1000 nM,1000 to 10000 nM
"NC(=O)c1cccc(Nc2cccc3c2CN(C(=O)c2c(O)cc(O)cc2OCc2ccccc2)CC3)c1 [Example 74, 3-((2-(2-(Benzyloxy)-4,6-dihydroxybenzoyl)-1,2,3,4-tetrahydroisoquinolin-8-yl)amino)benzamide]",> 10000 nM,> 10000 nM
"NC(=O)c1ccc(Nc2cccc3c2CN(C(=O)c2c(O)cc(O)cc2OCc2ccccc2)CC3)cc1 [Example 75, 4-((2-(2-(Benzyloxy)-4,6-dihydroxybenzoyl)-1,2,3,4-tetrahydroisoquinolin-8-yl)amino)benzamide]",> 10000 nM,> 10000 nM
"O=C(c1c(O)cc(O)cc1OCc1ccccc1)N1CCc2cccc(NC3CCCC3)c2C1 [Example 76, (2-(Benzyloxy)-4,6-dihydroxyphenyl)(8-(cyclopentylamino)-3,4-dihydroisoquinolin-2(1H)-yl)methanone]",1000 to 10000 nM,> 10000 nM
"CN1CCC(Nc2cccc3c2CN(C(=O)c2c(O)cc(O)cc2OCc2ccccc2)CC3)CC1 [Example 77, (2-(Benzyloxy)-4,6-dihydroxyphenyl)(8-((1-methylpiperidin-4-yl)amino)-3,4-dihydroisoquinolin-2(1H)-yl)methanone]",> 10000 nM,> 10000 nM
"CN1CCC(Nc2cccc3c2CN(C(=O)c2c(O)cc(O)cc2OCc2ccccc2)CC3)C1 (stereo not shown) [Example 78, (2-(Benzyloxy)-4,6-dihydroxyphenyl)(8-((1-methylpyrrolidin-3-yl)amino)-3,4-dihydroisoquinolin-2(1H)-yl)methanone]",< 1000 nM,> 10000 nM
"CNCc1cccc2c1CN(C(=O)c1c(O)cc(O)cc1OCc1ccccc1)C2 [Example 79, (2-(Benzyloxy)-4,6-dihydroxyphenyl) (4-((methylamino)methyl)isoindolin-2-yl) methanone]",1000 to 10000 nM,1000 to 10000 nM
"O=C(c1c(O)cc(O)cc1OCc1ccccc1)N1Cc2cccc(CNC3CCOC3)c2C1 (stereo not shown) [Example 80, (2-(Benzyloxy)-4,6-dihydroxyphenyl)(4-(((tetrahydrofuran-3-yl)amino)methyl)isoindolin-2-yl)methanone]",1000 to 10000 nM,1000 to 10000 nM
"O=C(c1c(O)cc(O)cc1OCc1ccccc1)N1Cc2cccc(CNC3COC3)c2C1 [Example 81, (2-(Benzyloxy)-4,6-dihydroxyphenyl)(4-((oxetan-3-ylamino)methyl)isoindolin-2-yl)methanone]",1000 to 10000 nM,1000 to 10000 nM
"CC1(NCc2cccc3c2CN(C(=O)c2c(O)cc(O)cc2OCc2ccccc2)C3)COC1 [Example 82, (2-(Benzyloxy)-4,6-dihydroxyphenyl)(4-(((3-methyloxetan-3-yl)amino)methyl)isoindolin-2-yl)methanone]",< 1000 nM,1000 to 10000 nM
"NCc1cccc2c1CN(C(=O)c1c(O)cc(O)cc1OCc1ccccc1)C2 [Example 83, (4-(Aminomethyl)isoindolin-2-yl)(2-(benzyloxy)-4,6-dihydroxyphenyl)methanone hydrochloride]",< 1000 nM,1000 to 10000 nM
"O=C(c1c(O)cc(O)cc1OCc1ccccc1)N1CCc2ccc(CNC3COC3)cc2C1 [Example 84, (2-(Benzyloxy)-4,6-dihydroxyphenyl)(7-((oxetan-3-ylamino)methyl)-3,4-dihydroisoquinolin-2(1H)-yl)methanone]",1000 to 10000 nM,1000 to 10000 nM
"O=C(c1c(O)cc(O)cc1OCc1ccccc1)N1CCc2ccc(CNC3CCOC3)cc2C1 (stereo not shown) [Example 85, (2-(Benzyloxy)-4,6-dihydroxyphenyl)(7-(((tetrahydrofuran-3-yl)amino)methyl)-3,4-dihydroisoquinolin-2(1H)-yl)methanone]",1000 to 10000 nM,1000 to 10000 nM
"CNC(=O)c1ccc2c(c1)CN(C(=O)c1c(O)cc(O)cc1OCc1ccccc1)C2 [Example 86, 2-(2-(Benzyloxy)-4,6-dihydroxybenzoyl)-N-methylisoindoline-5-carboxamide]",< 1000 nM,< 1000 nM
"CN(C)C(=O)c1ccc2c(c1)CN(C(=O)c1c(O)cc(O)cc1OCc1ccccc1)C2 [Example 87, 2-(2-(Benzyloxy)-4,6-dihydroxybenzoyl)-N,N-dimethylisoindoline-5-carboxamide]",< 1000 nM,< 1000 nM
